Measured values reported in the NIST ThermoML archive (doi:10.1021/je050261u).
± gives the expanded uncertainty stated by the source.

Experiment: xn = mol fraction of the nth substance listed
Settings: Liquid, Vibrating tube method, x1 = 1

CCO [ethanol] + CCCCCCC
mass density [kg/m3]
Settings | 293.15 K | 303.15 K | 313.15 K | 323.15 K | 333.15 K
100 kPa | 789.4 ± 1 | 781.1 ± 1 | 772.3 ± 1 | 763.1 ± 1 | 754.2 ± 1
5000 kPa | 793.5 ± 1 | 785.7 ± 1 | 776.9 ± 1 | 768 ± 1 | 759.4 ± 1
10000 kPa | 797.5 ± 1 | 789.8 ± 1 | 781.5 ± 1 | 772.9 ± 1 | 764.6 ± 1
15000 kPa | 801.4 ± 1 | 794 ± 1 | 785.8 ± 1 | 777.3 ± 1 | 769.4 ± 1
20000 kPa | 805.2 ± 1 | 797.8 ± 1 | 789.8 ± 1 | 781.4 ± 1 | 773.8 ± 1
25000 kPa | 808.7 ± 1 | 801.6 ± 1 | 793.7 ± 1 | 785.7 ± 1.1 | 777.8 ± 1.1
30000 kPa | 812.1 ± 1.1 | 805 ± 1.1 | 797.4 ± 1.1 | 789.4 ± 1.1 | 781.7 ± 1.1
35000 kPa | 815.3 ± 1.1 | 808.5 ± 1.1 | 801 ± 1.1 | 793.1 ± 1.1 | 785.6 ± 1.1
40000 kPa | 818.6 ± 1.1 | 811.8 ± 1.1 | 804.4 ± 1.1 | 796.7 ± 1.1 | 789.3 ± 1.1
45000 kPa | 821.6 ± 1.1 | 814.9 ± 1.1 | 807.8 ± 1.1 | 800.1 ± 1.1 | 792.8 ± 1.1
50000 kPa | 824.6 ± 1.1 | 817.9 ± 1.1 | 810.8 ± 1.1 | 803.5 ± 1.1 | 796.3 ± 1.1
55000 kPa | 827.5 ± 1.1 | 821.1 ± 1.1 | 813.7 ± 1.1 | 806.6 ± 1.1 | 799.7 ± 1.1
60000 kPa | 830.2 ± 1.1 | 824 ± 1.1 | 816.6 ± 1.1 | 809.7 ± 1.1 | 802.9 ± 1.1
65000 kPa | 832.9 ± 1.1 | 826.7 ± 1.1 | 819.5 ± 1.1 | 812.6 ± 1.1 | 806 ± 1.1
